Values joined by “and” are separate entries in the source; they are usually repeats but may differ in a detail not shown here. Identical values can stand only once.
Columns and labels:
Assay type in all cases: cell-based, human
[1] = tested on: HUES8-derived cortical neurons; experiment: phospho-CREB immunocytochemistry after KCl depolarization of dissociated cortical neurons
Excerpt: (§1) It is well known that synaptic activation through depolarization induces a transcriptional response in neurons (Ebert and Greenberg, 2013; Flavell et al., 2008; Hong et al., 2008; Lin et al., 2008). A key event in many types of neurons, including cortical neurons, is the phosphorylation of the transcription factor CREB. To examine whether neurons from dissociated cortical spheres responded to activation, we depolarized them with KCl.
(§2) Cell cultures were fixed in 4% paraformaldehyde (PFA) in PBS at room temperature (RT) for 20 min, then blocked for 20 min in 5% horse serum (HS) (Gibco) and 0.1% Triton X-100 (Sigma) in PBS. Cells were incubated with primary antibodies overnight at 4° C. Secondary antibodies were applied for 1 hr at room temperature. Whole spheres were cleared using the SeeDB protocol as follows: samples were fixed in 4% PFA and blocked for 24-48 hrs in 0.1% Triton X-100 and 5% HS at 4° C. Samples were then incubated with primary antibodies for 2-3 days at 4° C. in either blocking solution or 10% HS. Samples were washed with PBS 3 times and incubated with secondary antibodies for 3 days in either blocking solution or 10% HS. Following washing with PBS, samples were serially incubated in 20%, 40%, 60%, and 80% (wt/vol) fructose for 6-12 hrs at 25° C. Samples were immersed in 100% (wt/vol) fructose for 24 hrs, followed by SeeDB (115%, wt/vol) for at least 24 hrs at 25° C. All solutions were prepared with H2O and contained 0.5% α-thioglycerol. Samples were stored in SeeDB at 4° C.
The primary antibodies used in this study were raised against PAX6 (Covance), OTX1-2, Ki67, TBR1, SATB2, CTIP2, and ISL1 (Abcam), GLUR1, and ChAT (Millipore), SYNAPSINI (Synaptic System), TUJ1 (Covance), and MAP2 (Lifespan Biosciences). Secondary antibodies were AlexaFluor488, -546, -555, and -647-conjugated antibodies raised against the appropriate species (Invitrogen). Immunocytochemical images were acquired on the Opera High-Content Screening System (PerkinElmer). Immunohistochemical images and Ca^2+ imaging was acquired on the Nikon Eclipse TE2000-S microscope equipped with a heated stage and a humidified chamber with atmospheric control. 3D LSFM was performed on the ZEISS Lightsheet.Z1 Microscope Quantitative image analysis of neuronal cultures was done using PerkinElmer Columbus Image Data Storage and Analysis System v2.3.3.
[…] Neurons were silenced overnight with TTX (Natchannel-blocker) (EMD Bioscience, 1 μM) and AP-V (NMDAR antagonist) (Sigma Aldrich, 100 μM), two compounds that together inhibit any spontaneous activity in cultured neurons. […] Phospho-CREB was detected by immunostaining as described.

[2] = tested on: dissociated neurons from motor neuron spheres; experiment: phospho-CREB immunocytochemistry after KCl depolarization of motor neurons
Method: When stimulated with sonic hedgehog and retinoic acid at the proper doses and time points, differentiating cells within the spheres adopt the motor neuron fate and can be dissociated and replated without glial feeder layers.
as §2, with “All solutions were prepared with H2O and contained 0.5% α-thioglycerol. Samples were stored in SeeDB at 4° C.” left out
KCl experiments were performed on spheres at day 20 of differentiation and on dissociated neurons 10 days after dissociation. […] Phospho-CREB was detected by immunostaining as described.

[3] = tested on: cortical neurons from dissociated cortical spheres; experiment: qRT-PCR of activity-induced genes after KCl stimulation of cortical neurons; conditions: KCl-stimulated cortical neurons, by one hour after stimulation
Excerpt: as §1
Total RNA was isolated using RNeasy mini kit (QIAGEN) and subsequent cDNA synthesis with iSCRIPT (Bio-Rad). qRT-PCR was then performed using SYBER green (Bio-Rad) on a QuantStudio™ 12 K Flex Real-Time PCR System (Life Technologies). Quantitative levels for all genes were normalized to endogenous GAPDH. Expression levels of individual genes were normalized to the levels in undifferentiated human ESC/iPSC of each line. For KCL experiments, expression levels were normalized to the levels in untreated cells.
KCl experiments were performed on spheres at day 20 of differentiation and on dissociated neurons 10 days after dissociation. Neurons were silenced overnight with TTX (Natchannel-blocker) (EMD Bioscience, 1 μM) and AP-V (NMDAR antagonist) (Sigma Aldrich, 100 μM), two compounds that together inhibit any spontaneous activity in cultured neurons. […] Phospho-CREB was detected by immunostaining as described.

[4] = tested on: HUES9-derived motor neurons; experiment: GCaMP6 Ca2+ imaging after GABA and AMPA application; conditions: 100 μM, motor neurons cultured for 3 weeks after sphere dissociation
Method: Patch-clamp recordings were performed to further understand the electrophysiological characteristics of motor neurons from dissociated spheres.
For Ca^2+ imaging during the GABA switchover experiment cells were transduced with AAV1.Syn.GCaMP6s.WPRE.SV40 4 days after plating. During recording, coverslips were transferred to a perfusion chamber mounted on a Nikon Eclipse TE2000 microscope. Time-lapse recordings were performed at RT at a rate of 1 frame per second. GABA and AMPA were prepared and applied for 10 seconds in the same bath solution as used for electrophysiology. Mean fluorescent intensity of GCaMP6 fluorescence was measured in soma by ImageJ (U.S. National Institutes of Health, available at the world wide web at subdomain //imagej.nih.gov/ij/) and plotted by Igor. The amplitude was normalized to baseline fluorescent level (mean of 5 frames before drug application) for each cell. Background fluorescent level was determined in a cell-free area for each recording and subtracted.

SMILES	relative proportion of neurons positive for phospho-CREB, 30 min KCl ([1]; HUES8-derived cortical neurons 20 days after dissociation, KCl (60 mM) for 30 min, replicates and average of three independent experiments)	relative proportion of neurons positive for phospho-CREB, 1 hr KCl ([1]; HUES8-derived cortical neurons 20 days after dissociation, KCl (60 mM) for 1 hr, replicates and average of three independent experiments)	relative proportion of neurons positive for phospho-CREB, 6 hr KCl ([1]; HUES8-derived cortical neurons 20 days after dissociation, KCl (60 mM) for 6 hrs, replicates and average of three independent experiments)	phosphorylation of CREB after depolarization ([1]; neurons from dissociated cortical spheres depolarized with KCl)	phosphorylation of CREB in motor neurons after KCl depolarization [2]	transcription of the early-induced genes NPAS4, cFOS, and ARC [3]	intracellular Ca2+ response (GCaMP6 fluorescence) [4]
[Cl-].[K+] [KCl]	45% and 35% and 38%	38% and 34% and 32%	29% (2×) and 36%	robust phosphorylation of CREB	phosphorylation of CREB	increased transcription	
Cc1o[nH]c(=O)c1CC(N)C(=O)O (centres unmarked) [AMPA]							responded
NCCCC(=O)O [GABA]							responded
